Measured values from patent US9789101B2, “Methods and compositions for treating microbial infection using pyrroloquinone” (HELPERBY THERAPEUTICS LIMITED, priority 2010, dated 2017).

Columns and labels:
[1] = system: log phase Staphylococcus aureus; assay: Chequerboard analysis of HT00800059 with HT230 or HT281 against log phase Staphylococcus aureus; assay type: cell-based, Staphylococcus aureus (Oxford); conditions: for optical density reading at 405 nm: HT00800059 μg/ml: 1024,512,256,128,64,32,16,0, 24 hours; for MIC: Staphylococcus aureus, summary list, read-out: alone MIC
Protocol: (§1) Staphylococcus aureus (Oxford); Gram positive; Reference strain.
(§2) Log phase growth of methicilin sensitive Staphylococcus aureus (MSSA) was carried out as follows: • Bacteria were grown in 10 ml of nutrient broth (No. 2, (Oxoid)) overnight at 37° C. with continuous shaking at 120 rpm. The overnight cultures were diluted 1000× with iso-sensitest broth. The cultures were incubated at 37° C. with shaking for 1-2 hours to reach log CFU 6. Viability of the bacteria was estimated by colony forming unit (CFU) counts. From serial 10-fold dilutions of the experimental cultures, 100 μl samples were added to triplicate plates of nutrient agar plates (Oxoid) or blood agar plates (Oxoid). CFUs were counted after incubation of the plates at 37° C. for 24 hours.
(§3) Bacterial cultures: 10 μl of overnight cultures was added to 10 ml of fresh iso-sensitest broth to make the inoculation to 10^6 CFU/ml. 290 μl of the cell suspension was added to each well of the 96 well plate, which was incubated at 37° C. for 24 hours. 300 μl of iso-sensitest broth without bacterial cells were added to wells of the plate as a no bacterial control.
(§4) MIC determination: The optical density of the bacterial cells was read at 405 nm using a plate reader (Bio TEK). The MIC concentration was determined as the lowest concentration of drug which inhibits the bacterial growth.
HT230 was dissolved in DMSO to the stock concentration of 10 mg/ml.
HT281 was dissolved in DMSO to the stock concentration of 10 mg/ml.
(§5) HT00800059 was dissolved in H2O to the stock solution 30.07 mg/ml.
HT230 or HT281 (10 mg/ml) was firstly diluted to 0.96 mg/ml, then a serial of 2 fold dilution was carried out.
This was followed by the addition of 280 μl of log phase culture at 10^6 CFU/ml to make the final concentrations of each drug as shown.
In the above table, values in bold text are for HT00800059. Values in plain text are for HT230 or HT281. The numbers shown in each well are μg/ml.
Incubation of the compounds with the bacterial suspension was carried out for 24 hours. The kill effects of the drug combination were measured by optical density reading at 405 nm with a plate reader (Bio TEK).
(§6) The fractional inhibitory concentration (FIC) index was carried out as follows: (MIC of drug A, tested in combination)/(MIC of drug A, tested alone)+(MIC of drug B, tested in combination)/(MIC of drug B, tested alone). The interaction was defined as synergistic if the FIC index was <1, additive if the FIC index was =1 and antagonistic if the FIC index was >1.

[2] = system: log phase Staphylococcus aureus; assay: Chequerboard analysis of HT00800059 and HT61 against log phase Staphylococcus aureus; assay type: cell-based, Staphylococcus aureus (Oxford)
Protocol: as §1, §2, §3, §4
(§7) HT61 was dissolved in DMSO to the stock concentration of 10 mg/ml.
as §5
The drugs were first diluted as follows: • 28.8 μl of HT61 at 10 mg/ml was added into 271.2 μl of H2O followed by diluting 2 fold for 6 times.
Both drugs were mixed as following pattern: 10 μl of HT00800059 from each dilution was added into the wells of a 96 well plate from top to bottom and 10 μl of HT61 from each dilution was added to the same 96 well plate from left to right. After addition of 280 μl log phase cell suspension, the final concentrations of drugs for each well in the 96 well plate are shown in the table below.
Incubation of the compounds with the bacterial suspension was carried out for 24 hours. The kill effect of the drug combination and signal drug MIC was measured by optical density reading at 405 nm with a plate reader (Bio TEK). The MIC concentration was determined as the lowest concentration of drug which inhibits the bacterial growth.
as §6

[3] = system: stationary phase Staphylococcus aureus; assay: In vitro efficacy test against stationary phase Staphylococcus aureus (CFU counts); assay type: cell-based, Staphylococcus aureus (Oxford); conditions: CFU counts over 8 hours
Protocol: as §1
Stationary phase growth of methicilin sensitive Staphylococcus aureus (MSSA) was carried out as follows:
Subculture of the bacterial strains on agar plates: Overnight S. aureus bacterial cultures were stored at −70° C. with 20% glycerol (cryoprotectant). A loopful of the frozen cells was streaked on a blood agar plate which was incubated at 37° C. overnight (or longer) as culture plate A. A single colony of each strain from the culture plate A was streaked on the blood agar plate which was incubated at 37° C. overnight (or longer) as culture plate B. The culture plate B was stored at 4° C. for a week and served as the initial inoculation plate.
Bacterial growth in broth culture: A single colony from culture plate B was inoculated in 10 ml of nutrient broth (No. 2, (Oxoid)), which was incubated overnight at 37° C. with continuous shaking at 120 rpm. 200 μl of the overnight culture was added into a 500 ml bottle containing 100 ml of nutrient broth. The 100 ml culture was incubated at 37° C. with continuous shaking for 6 to 7 days. Viability of the cultures is estimated by colony forming unit (CFU) counts at 2 hour intervals for the first 24 hours and 12 to 24 hours afterwards.
Colony Forming Unit (CFU) counts were performed as follows: From serial 10-fold dilutions of the cultures, 100 μl samples were added to one third of blood agar plates (Oxoid) in triplicate. CFUs were counted using an aCoLyte colony counter (Synbiosis) after incubation of the plates at 37° C. for 24 hours or longer.
7 day old stationary phase cultures were used. The stationary phase cultures were diluted to obtain CFU counts in the cell suspension of 10^6 to 10^7 CFU/ml. The cell suspension was used to test drug sensitivity.
as §7
HT00800059 was dissolved in H2O to the stock solution 10 mg/ml
The drugs were first diluted as follows: • 7.2 μl of HT61 at 10 mg/ml was added into 292.8 μl of H2O followed by diluting 2 fold, 3 times. • 57.6 μl of HT00800059 at 10 mg/ml was added into 242.4 μl of H2O followed by diluting 2 fold, 2 times. • 10 μl of HT00800059 from each dilution was added into the wells of a 96 well plate followed by the addition of 290 μl of bacterial cell suspension to make the final concentrations of HT00800059 at 64, 32 and 0 μg/ml. • […]
In combination of two drugs: 10 μl of HT61 from each dilution was added into the wells of a 96 well plate followed by the addition of 10 μl of HT00800059 from each dilution. […]

[4] = system: clinically latent microorganisms; assay: Screening for ability to kill clinically latent microorganisms (method of WO2000028074); assay type: cell-based; conditions: observed by the Applicant
Excerpt: International Patent Application, Publication Number WO2000028074 describes a method of screening compounds to determine their ability to kill clinically latent microorganisms. […] This observation has necessitated the development of novel antimicrobials which may be used to kill clinically latent microorganisms.
By way of example, WO2000028074 describes a suitable method of screening compounds to determine their ability to kill clinically latent microorganisms. A typical method may include the following steps: • (1) growing a bacterial culture to stationery phase; • (2) treating the stationery phase culture with one or more antimicrobial agents at a concentration and or time sufficient to kill growing bacteria, thereby selecting a phenotypically resistant sub-population; • (3) incubating a sample of the phenotypically resistant subpopulation with one or more test compounds or agents; and • (4) assessing any antimicrobial effects against the phenotypically resistant subpopulation.

Cc1cc(N2CCC(Cc3ccccc3)C2)c2cc(NC(=O)c3ccccc3)ccc2n1 (stereo not shown) [HT281, N-[4-(3-benzylpyrrolidin-1-yl)-2-methylquinolin-6-yl]benzamide]
optical density reading at 405 nm ([1]; HT281 0.125 μg/ml): 1.334 | optical density reading at 405 nm ([1]; HT281 0.25 μg/ml): 1.281 | optical density reading at 405 nm ([1]; HT281 0.5 μg/ml): 1.378 | optical density reading at 405 nm ([1]; HT281 0.625 μg/ml): 1.256 | optical density reading at 405 nm ([1]; HT281 1 μg/ml): 1.263 | optical density reading at 405 nm ([1]; HT281 2 μg/ml): 1.157 | optical density reading at 405 nm ([1]; HT281 4 μg/ml): 1.080 | optical density reading at 405 nm ([1]; HT281 8 μg/ml): 0.361 | optical density reading at 405 nm ([1]; HT281 16 μg/ml): 0.364 | optical density reading at 405 nm ([1]; HT281 32 μg/ml): 0.396 | optical density reading at 405 nm ([1]; HT281 64 μg/ml): 0.558 | MIC after combination ([1]; HT281/HT00800059 chequerboard): 4 µg/mL | MIC before combination ([1]; HT281/HT00800059 chequerboard): 8 µg/mL | MIC [1]: 8 µg/mL

Cc1nc2ccc(Oc3ccccc3)cc2c2c1CCN2CCc1ccccc1 [HT61, 4-methyl-1-(2-phenylethyl)-8-phenoxy-2,3-dihydro-1H-pyrrolo[3,2-c]-quinoline]
MIC ([2]; Staphylococcus aureus, drug alone, Plate 1, read-out: MIC): 8 µg/mL | MIC ([2]; Staphylococcus aureus, read-out: alone MIC): 16 µg/mL | MIC ([2]; Staphylococcus aureus, with HT00800059 128 μg/ml, Plate 1, read-out: MIC of HT61 + HT00800059): 4 µg/mL | MIC ([2]; drug alone, Plate 2): 8 µg/mL | MIC of HT61 + HT00800059 ([2]; with HT00800059 128 μg/ml, Plate 2): 4 µg/mL | HT61 MIC in combination ([2]; with HT00800059 at 128 μg/ml): 8 µg/mL | activity against stationary phase S. aureus ([3]; 8 μg/ml): low activity | activity against stationary phase S. aureus ([3]; 4 and 2 μg/ml): no observed activity

CC[C@H]1OC(=O)[C@H](C)[C@@H](O[C@H]2C[C@@](C)(OC)[C@@H](O)[C@H](C)O2)[C@H](C)[C@@H](O[C@@H]2O[C@H](C)C[C@H](N(C)C)[C@H]2O)[C@](C)(O)C[C@@H](C)CN(C)[C@H](C)[C@@H](O)[C@]1(C)O [azithromycin]
activity against clinically latent microorganisms [4]: little or no activity

CC(=O)NC[C@H]1CN(c2ccc(N3CCOCC3)c(F)c2)C(=O)O1 [linezolid]
activity against clinically latent microorganisms [4]: little or no activity

Cc1cc(N2CCC(Cc3ccccc3)C2)c2cc(Oc3ccccc3)ccc2n1 (stereo not shown) [HT230, 4-(3-benzylpyrrolidin-1-yl)-2-methyl-6-phenoxyquinoline]
optical density reading at 405 nm ([1]; HT230 0.03125 μg/ml): 1.237 | optical density reading at 405 nm ([1]; HT230 0.0625 μg/ml): 1.312 | optical density reading at 405 nm ([1]; HT230 0.125 μg/ml): 1.317 | optical density reading at 405 nm ([1]; HT230 0.25 μg/ml): 1.401 | optical density reading at 405 nm ([1]; HT230 0.5 μg/ml): 1.135 | optical density reading at 405 nm ([1]; HT230 1 μg/ml): 1.160 | optical density reading at 405 nm ([1]; HT230 2 μg/ml): 1.190 | optical density reading at 405 nm ([1]; HT230 4 μg/ml): 0.365 | optical density reading at 405 nm ([1]; HT230 8 μg/ml): 0.363 | optical density reading at 405 nm ([1]; HT230 16 μg/ml): 0.357 | optical density reading at 405 nm ([1]; HT230 32 μg/ml): 0.406 | MIC after combination ([1]; HT230/HT00800059 chequerboard): 1 µg/mL | MIC before combination ([1]; HT230/HT00800059 chequerboard): 4 µg/mL | MIC [1]: 4 µg/mL | HT230 MIC in combination ([1]; with HT00800059 at 128 μg/ml): 4 µg/mL | HT230 MIC in combination ([1]; with HT00800059 at 256 μg/ml): 1 µg/mL
